Test results taken from US9850219B1, “Phenothiazine derivatives and methods of use thereof” (Acenda Pharma, Inc., priority 2016, dated 2017).

Experiments:
H441GL = experiment: Cytotoxicity, sulforhodamine B (SRB) assay, H441GL; type: cell-based, Human; conditions: Homo sapiens, 48 h, NA indicates no activity
Excerpt: (§1) Human non-small cell lung cancer (NSCLC) cell lines (e.g., A549, H441GL and H1299), colon cancer cell lines (e.g., HCT116 and DLD1), breast cancer cell lines (e.g., MCF7 and MDA-MB-231), and pancreatic cancer cell lines (e.g., PANC-1 and SUIT-2) were used in cytotoxicity studies. […] A549 and H441GL are EGFR-wild type adenocarcinoma cell lines. H1299 is an EGFR-wild type large cell carcinoma cell line. HCT116 and DLD1 are metastatic colon cell lines. MCF7 is a hormone-responsive breast cancer cell line. MDA-MB-231 is a triple-negative breast cancer cell line. PANC-1 is a metastatic adenocarcinoma cell line. SUIT-2 is a pancreatic ductal adenocarcinoma cell line.
(§2) All cell lines were grown and maintained in RPMI medium supplemented with 10% fetal bovine serum (FBS, Invitrogen), 2 mM L-glutamine, 100 U/mL penicillin, and 100 μg/mL streptomycin. For cell the culture experiment, stock solution (10 mM) of each test compound was dissolved in dimethyl sulfoxide (DMSO; Sigma).
(§3) Cells were plated in 96-well plates at a density of 2000 cells per well in triplicate. The cells in each well were treated on the third day (to ensure proper plating efficiency and vitality) with different concentrations (0-50 μM) of each test compound for 48 h.
(§4) Cell viability was assessed using the sulforhodamine B (SRB) assay. The medium was discarded, and the adherent cells were fixed by 100 μL of cold 10% trichloroacetic acid (w/v) in each well for 1 h at 4° C. After fixation, cells were stained with 100 μL/well of 0.4% (w/v, in 1% acetic acid) SRB solution for 30 min at room temperature, and then washed 5 times with 1% acetic acid. After air-drying, 100 μL of 10 mM Tris base was added to each well and the absorbance was read at 530 nm. Cytotoxicity is expressed as the percent of cells in drug treated wells relative to number of cells in the solvent only control (set to 100%). Each experiment was performed independently in triplicate and cytotoxicity IC50 value of each test compound was calculated from cytotoxicity data obtained at various concentrations.

HCT116 = experiment: Cytotoxicity, sulforhodamine B (SRB) assay, HCT116; type: cell-based, human; conditions: Homo sapiens, HCT-116, HCT116, Colon, 48 h
Excerpt: (§5) Human non-small cell lung cancer (NSCLC) cell lines (e.g., A549, H441GL and H1299), colon cancer cell lines (e.g., HCT116 and DLD1), breast cancer cell lines (e.g., MCF7 and MDA-MB-231), and pancreatic cancer cell lines (e.g., PANC-1 and SUIT-2) were used in cytotoxicity studies. These NSCLC cell lines have intrinsic resistance to epidermal growth factor receptor (EGFR) inhibitors, e.g., gefitinib. A549 and H441GL are EGFR-wild type adenocarcinoma cell lines. H1299 is an EGFR-wild type large cell carcinoma cell line. HCT116 and DLD1 are metastatic colon cell lines. MCF7 is a hormone-responsive breast cancer cell line. MDA-MB-231 is a triple-negative breast cancer cell line. PANC-1 is a metastatic adenocarcinoma cell line. SUIT-2 is a pancreatic ductal adenocarcinoma cell line.
as §2, §3, §4

H1299 = experiment: Cytotoxicity, sulforhodamine B (SRB) assay, H1299; type: cell-based; conditions: Homo sapiens, NCI-H1299, H1299, 48 h
Excerpt: as §1, §2, §3, §4

PANC-1 = experiment: Cytotoxicity, sulforhodamine B (SRB) assay, PANC-1; type: cell-based, human; conditions: Homo sapiens, PANC-1, Pancreas, 48 h, NA = no activity
Excerpt: as §5, §2, §3, §4

H441GL cells = experiment: Study 2: tumor size in mouse lung cancer model; type: in vivo, NOD/SCID mice; conditions: Study 2, 0.0127 mmol/kg daily, i.p.; for Tumor Size [Fold Change from Week 3 (Mean ± SD, n = 4)] Week 3: Week 3 (baseline, start of treatment)
Experimental: H441GL cells (1×10^6 cells in 100 μL phosphate-buffered saline/injection) were subcutaneously injected into the right flank of NOD/SCID mice (female, 4-6 weeks old). Mice were allowed 2 weeks for tumor growth. On the first day of Week 3 post injection, tumor-bearing mice were randomly divided into control group (DMSO vehicle, intraperitoneal (i.p.) injection) and test compound treatment groups (5 mg/kg/day, 5 days/week, i.p. injection). Over the period of 10 weeks, tumorigenesis in both groups was measured using a caliper on a weekly basis. The change in tumor size was expressed as in fold change from Week 3. In this study body weight of each mouse was also recorded at the end of each study week.
In this study, the daily dose was 0.0127 mmol/kg instead of 5 mg/kg.

SUIT-2 = experiment: Cytotoxicity, sulforhodamine B (SRB) assay, SUIT-2; type: cell-based, human; conditions: Homo sapiens, SUIT-2, Pancreas, 48 h
Excerpt: as §5, §2, §3, §4

MDA-MB-231 = experiment: Cytotoxicity, sulforhodamine B (SRB) assay, MDA-MB-231; type: cell-based, human; conditions: Homo sapiens, MDA-MB-231, Breast, 48 h
Excerpt: as §5, §2, §3, §4

A549 = experiment: Cytotoxicity, sulforhodamine B (SRB) assay, A549; type: cell-based, Human; conditions: Homo sapiens, A549, 48 h, NA indicates no activity
Excerpt: as §1, §2, §3, §4

lung cancer cells = experiment: Cytotoxicity SRB assay, summary of Table 2; type: cell-based, Human; conditions: summary in words of Table 2
Excerpt: as §5, §3, §4
NA indicates no activity.

MCF7 = experiment: Cytotoxicity, sulforhodamine B (SRB) assay, MCF7; type: cell-based, human; conditions: Homo sapiens, MCF7, Breast, 48 h
Excerpt: as §5, §2, §3, §4

DLD1 = experiment: Cytotoxicity, sulforhodamine B (SRB) assay, DLD1; type: cell-based, human; conditions: Homo sapiens, DLD-1, DLD1, Colon, 48 h
Excerpt: as §5, §2, §3, §4

NSCLC cells = conditions: from WO2015/184794, WO2013/060305, Yeh et al. 2012; cited from earlier work
[1] = test system: CSCs in human NSCLC cell lines; conditions: from US 2014/0294994, WO2013/060305, WO2015/184794; cited from earlier work

Structure (SMILES) | IC50 (H441GL) [µM] | IC50 (HCT116) [µM] | IC50 (H1299) [µM] | IC50 (PANC-1) [µM] | Tumor Size [Fold Change from Week 3 (Mean ± SD, n = 4)] Week 3 (H441GL cells) [Fold Change] | Tumor Size [Fold Change from Week 3 (Mean ± SD, n = 4)] Week 9 (H441GL cells) [Fold Change] | Tumor Size [Fold Change from Week 3 (Mean ± SD, n = 4)] Week 13 (H441GL cells) [Fold Change] | IC50 (SUIT-2) [µM] | IC50 (MDA-MB-231) [µM] | IC50 (A549) [µM] | inhibition of cell proliferation of lung cancer cells (lung cancer cells) | IC50 (MCF7) [µM] | IC50 (DLD1) [µM] | cytotoxicity to NSCLC cells (NSCLC cells) | anti-tumor effects, growth of CSCs in human NSCLC cell lines [1]
COCC(COCC(COCC(COCCOCCOCCN1CCN(CCCN2c3ccccc3Sc3ccc(C(F)(F)F)cc32)CC1)OC)OC)OC (stereo not drawn) [Compound 25-1b, NDT-[CH2CH2O]n—[CH2CH(OCH3)CH2O]3—CH3] | 8.8 | 7.2 | 6.9 | 10 | 1 ± 0 | 10.2 ± 1.4 | 25.0 ± 4.4 | 10.9 | 11.2 | 11.4 | inhibit cell proliferation | 12.2 | 11.7 |  | 
COCC(COCC(COCC(COCCOCCOCCOCCOCCOCCOCCOCCOCCN1CCN(CCCN2c3ccccc3Sc3ccc(C(F)(F)F)cc32)CC1)OC)OC)OC (stereo not drawn) [Compound 25-2b, NDT-[CH2CH2O]n—[CH2CH(OCH3)CH2O]3—CH3] | 11.4 | 11.4 | 13.9 | 2.9 | 1 ± 0 | 13.0 ± 1.6 | 35.7 ± 5.3 | 13 | 13.1 | 14 | inhibit cell proliferation | 10.9 | 15.3 |  | 
COCCOCCOCCOCC(COCC(COCC(CN1CCN(CCCN2c3ccccc3Sc3ccc(Cl)cc32)CC1)OC)OC)OC (stereo not drawn) [Compound 26-1a, NDP-[CH2CH(OCH3)CH2O]3—[CH2CH2O]n—CH3] | 12.1 | 11.2 | 24.9 | 15.8 |  |  |  | 25.8 | 13.5 | 11.2 | inhibit cell proliferation | 14.6 | 22.3 |  | 
COCCOCCOCCOCCOCCOCCOCCOCCOCCOCC(COCC(COCC(CN1CCN(CCCN2c3ccccc3Sc3ccc(Cl)cc32)CC1)OC)OC)OC (stereo not drawn) [Compound 26-2a, NDP-[CH2CH(OCH3)CH2O]3—[CH2CH2O]n—CH3] | 25.4 | 13.3 | 42.6 | 27.9 |  |  |  | 26.9 | 16.3 | 23.8 | inhibit cell proliferation | 24.2 | 32.8 |  | 
COCCOCCOCCOCCOCCOCCOCCOCCOCCOCC(COCC(COCC(CN1CCN(CCCN2c3ccccc3Sc3ccc(C(F)(F)F)cc32)CC1)OC)OC)OC (stereo not drawn) [Compound 26-2b, NDT-[CH2CH(OCH3)CH2O]3—[CH2CH2O]n—CH3] | 12.1 | 8.9 | 25.3 | 12.9 |  |  |  | 17.2 | 12.5 | 15.6 | inhibit cell proliferation | 10 | 19.2 |  | 
OCC(O)COCC(O)COCC(O)CN1CCN(CCCN2c3ccccc3Sc3ccc(Cl)cc32)CC1 (stereo not drawn) [Compound 33a, NDP-[CH2CH(OH)CH2O]3—H] | 25 | 20.2 | 28.4 | 30.2 |  |  |  | 34 | 24.2 | 35.2 | inhibit cell proliferation | 26 | 35.2 |  | 
OCC(O)COCC(O)COCC(O)CN1CCN(CCCN2c3ccccc3Sc3ccc(C(F)(F)F)cc32)CC1 (stereo not drawn) [Compound 33b, NDT-[CH2CH(OH)CH2O]3—H] | 17.9 | 14.9 | 20.8 | 23.5 |  |  |  | 25.7 | 14.8 | 19.8 | inhibit cell proliferation | 13.8 | 26.4 |  | 
Clc1ccc2c(c1)N(CCCN1CCNCC1)c1ccccc1S2 [NDP, 10-[3-(1-Piperazinyl)propyl]-2-chloro-10H-phenothiazine, reference compound] | 8.4 |  | 6.6 |  |  |  |  |  |  | 9.7 | inhibit cell proliferation |  |  | shown cytotoxicity | 
CN1CCN(CCCN2c3ccccc3Sc3ccc(Cl)cc32)CC1 [PCP, prochlorperazine] |  |  |  |  |  |  |  |  |  |  | inhibit cell proliferation |  |  | shown cytotoxicity | inhibiting the growth of CSCs
CN1CCN(CCCN2c3ccccc3Sc3ccc(C(F)(F)F)cc32)CC1 [TFP, trifluoperazine, reference compound] | 21.6 |  | 28.7 |  |  |  |  |  |  | 23.5 | inhibit cell proliferation |  |  | shown cytotoxicity | inhibiting the growth of CSCs
